# In patent publication US10548911B2, “Small molecule anti-scarring agents” (UNIVERSITY OF ROCHESTER, priority 2014, dated 2020):
# How the values were obtained:
# TGFβ signaling = assay: Chembridge collection screen with HEK293-Thy1 SBE-Luc cell line (normalized luciferase activity); format: cell-based, human; settings: Chembridge collection re-screen
# Excerpt: Using the recombinant HEK293-Thy1 SBE-Luc cell line described in the preceding Examples, the Chembridge collection of 20,000 small molecules was screened to identify other small molecules that inhibit TGFβ activity and, thus, may be novel anti-scarring compounds
# 100 top candidates from the initial screen were re-screened. Numbers indicate the Chembride molecule ID number. The second screen controls for toxicity and non-specific effects by using a constitutive luciferase to normalize results. This assay can be further used in a high throughput fashion to analyze newly derived compounds and monitor structure activity relationships (SAR) to discover new molecules that can serve as the basis for anti-scarring therapeutics.
# The two-dimensional structures of the molecules are depicted in the left hand column. Chembridge collection IDs are listed in the second column and the additional columns denote the following (in order): the molecular name, the percent inhibition of the molecule using the screen (100% being a complete inhibition) (% Inhib.), and the internal key (key) for further identification in FIGS. 22 and 23.
# human lung fibroblasts = assay: Myofibroblast formation assay (cell images) of Chembridge hits in human lung fibroblasts; format: cell-based
# Protocol: FIG. 23 is a panel of cell images showing efficacy of selected Chembridge hits in myofibroblast formation assays using human lung fibroblasts. […] Key: SNC: salinomycin control; A1: 5255687; A2:5130037; A4:9040737; B3:9057423; C2:9018748; C3:9048694; C4:9022265.
# (§1) Selected Chembridge hits were tested in myofibroblast formation assays using human orbital fibroblasts (FIG. 22) and human lung fibroblasts (FIG. 23).
# [1] = test system: human orbital fibroblasts; assay: Myofibroblast formation assay (cell images) of Chembridge hits in human orbital fibroblasts; format: cell-based
# Protocol: FIG. 22 is a panel of cell images showing efficacy of selected Chembridge hits in myofibroblast formation assays using human orbital fibroblasts. […] Key: SNC: salinomycin control; A1: 5255687; A2:5130037; A4:9040737; B3:9057423; C2:9018748; C3:9048694; C4:9022265.
# as §1
# [2] = test system: TGFβ-induced myofibroblast formation in human fibroblasts; assay: Western blot of myofibroblast markers αSMA and calponin in TGFβ-treated human (TED orbital) fibroblasts; format: cell-based; settings: 250 nM, TGFβ, 72 hours
# Protocol: TED fibroblasts were treated with TGFβ (1 ng/ml) in the presence or absence of 10-250 nM salinomycin for 72 hours to allow formation of myofibroblasts. After 72 hours, cells were harvested and analyzed by Western blot. As expected, the fibroblasts robustly responded to TGFβ, expressing high levels of αSMA and calponin (FIG. 2A). […] At 50 nM salinomycin, expression of αSMA was reduced by 4-fold over TGFβ treatment alone. Furthermore, at 250 nM salinomycin, αSMA expression was reduced by approximately 16-fold, to levels at or below untreated fibroblasts. […] Another key role of myofibroblasts in scar formation is the production of collagen. Whether salinomycin could block myofibroblast collagen production was assessed. Cells were treated with TGFβ and salinomycin as above and after 72 hours, culture medium was collected and analyzed for collagen levels using a specific collagen I antibody and slot blot analysis.
# To test these four compounds, human fibroblasts were treated with TGFβ in the absence or presence of 250 nM of either salinomycin, narasin, clioquinol or monensin for 72 hours. After treatment, cell lysates were harvested and analyzed for the presence of the myofibroblast markers, αSMA and calponin (FIG. 3B).
smiles,measurement,setting,value
"Cc1cc(S(=O)(=O)NCc2ccncc2)ccc1F [compound 9021391, 4-fluoro-3-methyl-N-(4-pyridinylmethyl)benzenesulfonamide]","% Inhib. (percent inhibition of the molecule using the screen, 100% being a complete inhibition)",TGFβ signaling,66%
"Cc1nn2c(=O)cc(-c3ccccc3)[nH]c2c1-c1ccc(F)cc1 [compound 9040737, 3-(4-fluorophenyl)-2-methyl-5-phenylpyrazolo[1,5-a]pyrimidin-7(4H)-one]","% Inhib. (percent inhibition of the molecule using the screen, 100% being a complete inhibition)",TGFβ signaling,63%
same,TGFβ induced myofibroblast formation (cell images),human lung fibroblasts,preventing TGFβ induced myofibroblast formation
same,cell death (cell images),human lung fibroblasts,not causing cell death
same,TGFβ induced myofibroblast formation (cell images),[1],preventing TGFβ induced myofibroblast formation
same,cell death (cell images),[1],not causing cell death
"CCOC(=O)c1c(N)sc2c1CCC/C2=N/O [compound 5130037, ethyl 2-amino-7-(hydroxyimino)-4,5,6,7-tetrahydro-1-benzothiophene-3-carboxylate]","% Inhib. (percent inhibition of the molecule using the screen, 100% being a complete inhibition)",TGFβ signaling,68%
same,TGFβ induced myofibroblast formation (cell images),human lung fibroblasts,preventing TGFβ induced myofibroblast formation
same,cell death (cell images),human lung fibroblasts,not causing cell death
same,TGFβ induced myofibroblast formation (cell images),[1],preventing TGFβ induced myofibroblast formation
same,cell death (cell images),[1],not causing cell death
"CC1=Nc2ccccc2NC2=C1C(=O)CC(c1ccco1)C2 (stereo not shown) [compound 9025733, 3-(2-furyl)-11-methyl-2,3,4,5-tetrahydro-1H-dibenzo[b,e][1,4]diazepin-1-one]","% Inhib. (percent inhibition of the molecule using the screen, 100% being a complete inhibition)",TGFβ signaling,84%
"Cc1ccc(NC2=Nn3c(Cc4ccccc4)nnc3SC2)cc1 [compound 9016022, 3-benzyl-N-(4-methylphenyl)-7H-[1,2,4]triazolo[3,4-b][1,3,4]thiadiazin-6-amine]","% Inhib. (percent inhibition of the molecule using the screen, 100% being a complete inhibition)",TGFβ signaling,46%
"CC(C)(C)NS(=O)(=O)c1ccc(NC(=O)c2ccncc2)cc1 [compound 9038066, N-{4-[(tert-butylamino)sulfonyl]phenyl}isonicotinamide]","% Inhib. (percent inhibition of the molecule using the screen, 100% being a complete inhibition)",TGFβ signaling,54%
"COc1ccccc1NC(=O)C#Cc1ccccc1 [compound 9048694, N-(2-methoxyphenyl)-3-phenyl-2-propynamide]","% Inhib. (percent inhibition of the molecule using the screen, 100% being a complete inhibition)",TGFβ signaling,92%
same,TGFβ induced myofibroblast formation (cell images),human lung fibroblasts,preventing TGFβ induced myofibroblast formation
same,cell death (cell images),human lung fibroblasts,not causing cell death
same,TGFβ induced myofibroblast formation (cell images),[1],preventing TGFβ induced myofibroblast formation
same,cell death (cell images),[1],not causing cell death
"CNC(=O)c1ccccc1OCCOc1ccccc1 [compound 9057423, N-methyl-2-(2-phenoxyethoxy)benzamide]","% Inhib. (percent inhibition of the molecule using the screen, 100% being a complete inhibition)",TGFβ signaling,51%
same,TGFβ induced myofibroblast formation (cell images),human lung fibroblasts,preventing TGFβ induced myofibroblast formation
same,cell death (cell images),human lung fibroblasts,not causing cell death
same,TGFβ induced myofibroblast formation (cell images),[1],preventing TGFβ induced myofibroblast formation
same,cell death (cell images),[1],not causing cell death
"O=C(Nc1nc2ccccc2[nH]1)c1ccccc1Br [compound 7263741, N-1H-benzimidazol-2-yl-2-bromobenzamide]","% Inhib. (percent inhibition of the molecule using the screen, 100% being a complete inhibition)",TGFβ signaling,46%
"Cc1cc(Cl)c(Cl)cc1S(=O)(=O)NCc1ccncc1 [compound 9018748, 4,5-dichloro-2-methyl-N-(4-pyridinylmethyl)benzenesulfonamide]","% Inhib. (percent inhibition of the molecule using the screen, 100% being a complete inhibition)",TGFβ signaling,95%
same,TGFβ induced myofibroblast formation (cell images),human lung fibroblasts,preventing TGFβ induced myofibroblast formation
same,cell death (cell images),human lung fibroblasts,not causing cell death
same,TGFβ induced myofibroblast formation (cell images),[1],preventing TGFβ induced myofibroblast formation
same,cell death (cell images),[1],not causing cell death
"CC(Nc1ncnc2c1oc1ccccc12)c1ccccc1.Cl (stereo not shown) [compound 9104696, N-(1-phenylethyl)[1]benzofuro[3,2-d]pyrimidin-4-amine hydrochloride]","% Inhib. (percent inhibition of the molecule using the screen, 100% being a complete inhibition)",TGFβ signaling,75%
"O=S(=O)(NCc1ccncc1)c1cccc(F)c1 [compound 9019912, 3-fluoro-N-(4-pyridinylmethyl)benzenesulfonamide]","% Inhib. (percent inhibition of the molecule using the screen, 100% being a complete inhibition)",TGFβ signaling,58%
Oc1c(I)cc(Cl)c2cccnc12 [clioquinol],expression of αSMA and calponin,[2],did not inhibit
"C=CCOc1ccc(NC(=O)c2ccc(CN3CCOCC3)cc2)cc1 [compound 7991998, N-[4-(allyloxy)phenyl]-4-(4-morpholinomethyl)benzamide]","% Inhib. (percent inhibition of the molecule using the screen, 100% being a complete inhibition)",TGFβ signaling,60%
CC[C@@]1([C@@H]2O[C@@H]([C@H]3O[C@@](O)(CO)[C@H](C)C[C@@H]3C)C[C@@H]2C)CC[C@H]([C@]2(C)CC[C@]3(C[C@H](O)[C@@H](C)[C@@H]([C@@H](C)[C@@H](OC)[C@H](C)C(=O)O)O3)O2)O1 [monensin],expression of αSMA and calponin,[2],inhibited expression of αSMA and calponin
"Cc1cc(C)c(C(=O)/C=C/c2ccccc2Cl)c(=O)[nH]1 [compound 5255687, 3-[3-(2-chlorophenyl)acryloyl]-4,6-dimethyl-2(1H)-pyridinone]","% Inhib. (percent inhibition of the molecule using the screen, 100% being a complete inhibition)",TGFβ signaling,70%
same,TGFβ induced myofibroblast formation (cell images),human lung fibroblasts,preventing TGFβ induced myofibroblast formation
same,cell death (cell images),human lung fibroblasts,not causing cell death
same,TGFβ induced myofibroblast formation (cell images),[1],preventing TGFβ induced myofibroblast formation
same,cell death (cell images),[1],not causing cell death
"Cc1ccc(C(C)NC(=O)c2c(Cl)cnn2C)cc1C (stereo not shown) [compound 9043411, 4-chloro-N-[1-(3,4-dimethylphenyl)ethyl]-1-methyl-1H-pyrazole-5-carboxamide]","% Inhib. (percent inhibition of the molecule using the screen, 100% being a complete inhibition)",TGFβ signaling,37%
"Cc1nn2c(=O)cc(-c3ccc(Cl)cc3)[nH]c2c1-c1ccccc1 [compound 9080334, 5-(4-chlorophenyl)-2-methyl-3-phenylpyrazolo[1,5-a]pyrimidin-7(4H)-one]","% Inhib. (percent inhibition of the molecule using the screen, 100% being a complete inhibition)",TGFβ signaling,41%
"OCc1ccc(Sc2ccc(Cl)cc2)o1 [compound 7586770, {5-[(4-chlorophenyl)thio]-2-furyl}methanol]","% Inhib. (percent inhibition of the molecule using the screen, 100% being a complete inhibition)",TGFβ signaling,80%
"CCOc1ccc(S(=O)(=O)NCc2ccncc2)c(C)c1C [compound 9022265, 4-ethoxy-2,3-dimethyl-N-(4-pyridinylmethyl)benzenesulfonamide]","% Inhib. (percent inhibition of the molecule using the screen, 100% being a complete inhibition)",TGFβ signaling,84%
same,TGFβ induced myofibroblast formation (cell images),human lung fibroblasts,preventing TGFβ induced myofibroblast formation
same,cell death (cell images),human lung fibroblasts,not causing cell death
same,TGFβ induced myofibroblast formation (cell images),[1],preventing TGFβ induced myofibroblast formation
same,cell death (cell images),[1],not causing cell death
"CCN(CC)C(=O)c1ccc(Cl)c(N)c1 [compound 9116592, 3-amino-4-chloro-N,N-diethylbenzamide]","% Inhib. (percent inhibition of the molecule using the screen, 100% being a complete inhibition)",TGFβ signaling,92%
